Two compounds from US5876746A, “Transdermal patch and method for administering 17-deacetyl norgestimate alone or in combination with an estrogen” (Cygnus, Inc., priority 1996, dated 1999) can be followed below.

Like-named read-outs stand apart in the source and are kept apart here.

Procedure: Mixtures of Duro-Tak 87-2287, 0.26% aluminum acetylacetonate crosslinker, 6% 17-d-Ngm, 1% EE, and various permeation enhancers were prepared. These mixtures were cured and cast as a 100 micron thick (wet) layer onto a 3M 1022 polyester backing and dried. Skin flux tests were carried out on the resulting assemblies according to the procedure described in col. […] HPLC was used to assay for 17-d-Ngm and EE. A Perkin Elmer HPLC system with Diedoarray detector set at 245 nm and 215 nm for 17-d-Ngm and EE, respectively. The mobile phase was 55% water, 45% acetonitrile at a flow rate of 1.0 ml/min. Retention time was 4.5 and 3.0 min. for 17-d-Ngm and EE, respectively.
It was mixed with 17-d-Ngm, EE, 7% PVP (K30 from BASF; dissolved in n-propanol) and various enhancers. These mixtures were cast as a 100 micron thick (wet) layer onto a 3M 1022 polyester backing and dried. Skin flux tests were carried out on the resulting assemblies as in Example 1.
PIB solutions were prepared by dissolving VISTANEX L100, Vistanex LM-MS-LC, and polybutene (Indopol H1900) in hexane. Suspensions of PVP-CLM, 17-d-Ngm, EE and various enhancers in ethanol/ethyl acetate were prepared. The PIB solution was added to the drug suspensions and the resulting mixtures were thoroughly blended. The mixtures were cast as a 10 mil thick (wet) layer onto release liners and dried at 70° C. for 40 min. Saranex 2015 backing was laminated to the subassembly. Skin flux studies were carried out on these assemblies as in Example 1.

For the compound `C[C@]12CC[C@@H]3c4ccc(O)cc4CC[C@H]3[C@@H]1CC[C@@H]2O` [17β-estradiol], the Flux (Table 5: 2% 17β-estradiol, 2% 17-deacetynorgetimate, 20% PVP-CLM, 76% PIB adhesive) is reported as 0.20 μg/cm^2 /hr.

In the case of `C#C[C@]1(O)CC[C@H]2[C@@H]3CCc4cc(O)ccc4[C@H]3CC[C@@]21C` [EE, ethinyl estradiol], the Flux is on record as 0.061 ± 0.007 μg/cm^2 /hr (Table 1: 2% TG + 4% OL, Duro-Tak 87-2287, 6% 17-d-Ngm, 1% EE); 0.076 ± 0.005 μg/cm^2 /hr (Table 1: 2% TG + 10% ML, Duro-Tak 87-2287, 6% 17-d-Ngm, 1% EE); 0.057 ± 0.009 μg/cm^2 /hr (Table 1: 2% TG + 10% PGML, Duro-Tak 87-2287, 6% 17-d-Ngm, 1% EE); 0.043 ± 0.011 μg/cm^2 /hr (Table 1: 3% TG, Duro-Tak 87-2287, 6% 17-d-Ngm, 1% EE); 0.072 ± 0.002 μg/cm^2 /hr (Table 1: 4% TG + 15% ML, Duro-Tak 87-2287, 6% 17-d-Ngm, 1% EE); 0.18 ± 0.02 μg/cm^2 /hr (Table 2: silicone 4202, 7% PVP, 2% 17-d-Ngm, 0.5% EE, 2% TG + 2% ML). Moreover, the Flux is given as 0.074 ± 0.008 μg/cm^2 /hr (Table 2: silicone 4202, 7% PVP, 4% 17-d-Ngm, 0.5% EE, 2% ML); 0.069 ± 0.007 μg/cm^2 /hr (Table 2: silicone 4202, 7% PVP, 4% 17-d-Ngm, 0.5% EE, 5% ML + 1% TG); 0.043 ± 0.004 μg/cm^2 /hr (Table 2: silicone 4202, 7% PVP, 6% 17-d-Ngm, 0.5% EE, 5% ML + 1% TG); 0.062 ± 0.01 μg/cm^2 /hr (Table 2: silicone 4202, 7% PVP, 6% 17-d-Ngm, 0.5% EE, 14% (TC:PGML; 80:20)); 0.070 ± 0.01 μg/cm^2 /hr (Table 2: silicone 4202, 7% PVP, 6% 17-d-Ngm, 0.5% EE, 14% PGML); 0.078 ± 0.01 μg/cm^2 /hr (Table 2: silicone 4202, 14% PVP, 4% 17-d-Ngm, 0.5% EE, 4% TG + 5% ML). This compound gave a Flux (Table 3: 0.1% EE, 1% 17-d-Ngm, 5% ML, 7% PVP-CLM, 86.9% silicone) of 0.05 ± 0.002 μg/cm^2 /hr; a Flux (Table 3: 0.1% EE, 1% 17-d-Ngm, 5% ML, 7% PVP-K30, 86.9% silicone) of 0.04 ± 0.008 μg/cm^2 /hr; a Flux (Table 4: PIB 1:5:4, 0.2% EE, 1.0% 17-d-Ngm, 20% PVP-CLM, 5% AMWAT) of 0.05 ± 0.004 μg/cm^2 /hr; a Flux (Table 4: PIB 1:5:4, 0.2% EE, 2.0% 17-d-Ngm, 20% PVP-CLM, 3% oleic acid) of 0.06 ± 0.002 μg/cm^2 /hr; a Flux (Table 4: PIB 1:5:4, 0.2% EE, 2.0% 17-d-Ngm, 20% PVP-CLM, 5% lauramide diethanoiamine) of 0.06 ± 0.001 μg/cm^2 /hr; a Flux (Table 4: PIB 1:5:4, 0.2% EE, 2.0% 17-d-Ngm, 20% PVP-CLM, 10% PGML) of 0.09 ± 0.001 μg/cm^2 /hr. The Flux was found to be 0.10 ± 0.001 μg/cm^2 /hr (Table 4: PIB 1:5:4, 0.2% EE, 2.0% 17-d-Ngm, 20% PVP-CLM, 10/0.5% PGML/oleic acid); 0.04 ± 0.002 μg/cm^2 /hr (Table 4: PIB 1:5:4, 0.2% EE, 3.0% 17-d-Ngm, 20% PVP-CLM, 3% oleic acid); 0.07 ± 0.001 μg/cm^2 /hr (Table 4: PIB 1:5:4, 0.2% EE, 3.0% 17-d-Ngm, 20% PVP-CLM, 10% PGML); 0.04 ± 0.001 μg/cm^2 /hr (Table 4: PIB 1:5:4, 0.2% EE, 4.0% 17-d-Ngm, 20% PVP-CLM, 5% lauric acid N,N-dimethyl amide); 0.10 ± 0.001 μg/cm^2 /hr (Table 4: PIB 1:5:4, 0.3% EE, 4.0% 17-d-Ngm, 20% PVP-CLM, 8% PGIS); 0.14 ± 0.001 μg/cm^2 /hr (Table 4: PIB 1:5:4, 0.3% EE, 4.0% 17-d-Ngm, 20% PVP-CLM, 8/3% PGML/oleic acid). This compound had a Flux (Table 4: PIB 1:5:4, 0.3% EE, 4.0% 17-d-Ngm, 20% PVP-CLM, 15% dibutylsebacate) of 0.06 ± 0.005 μg/cm^2 /hr; a Flux (Table 4: PIB 1:5:4, 0.3% EE, 4.0% 17-d-Ngm, 20% PVP-CLM, 15% ethyl oleate) of 0.10 ± 0.001 μg/cm^2 /hr; a Flux (Table 4: PIB 1:5:4, 0.3% EE, 4.0% 17-d-Ngm, 20% PVP-CLM, 15% isopropyl palmitate) of 0.07 ± 0.001 μg/cm^2 /hr; a Flux (Table 4: PIB 2:4:4, 0.3% EE, 4.0% 17-d-Ngm, 20% PVP-CLM, 20% propyl laurate) of 0.06 ± 0.002 μg/cm^2 /hr; a Flux (Table 6: 70.8% PIB, 20% PVP-CLM, 0.2% EE, 2% 71-d-Ngm, 7% lauryl lactate, skin permeability Low) of 0.03 μg/cm^2 /hr; a Flux (Table 6: 70.8% PIB, 20% PVP-CLM, 0.2% EE, 2% 71-d-Ngm, 7% lauryl lactate, skin permeability Medium) of 0.08 μg/cm^2 /hr. For the same compound, the Flux (Table 6: 72.8% PIB, 20% PVP-CLM, 0.2 EE, 2% 17-d-Ngm, 5% myristyl lactate, skin permeability not given) is reported as 0.09 μg/cm^2 /hr; the Flux (Table 6: 72.85% PIB, 20% PVP-CLM, 0.15% EE, 5% lauryl lactate, skin permeability High) was found to be 0.08 μg/cm^2 /hr; the Flux (Table 6: 72.85% PIB, 20% PVP-CLM, 0.15% EE, 5% lauryl lactate, skin permeability Low) is recorded as 0.02 μg/cm^2 /hr; the Flux (Table 6: 72.85% PIB, 20% PVP-CLM, 0.15% EE, 5% lauryl lactate, skin permeability Medium) was 0.05 μg/cm^2 /hr.
